Earlier results as cited in patent US20050272712A1, “Compositions and methods for treatment of premenstrual dysphoric disorder” (Wyeth, priority 2004, published 2005).

Conditions: daily dose of either 20 mg or 60 mg; Steiner et al. 1995

SMILES: CNCCC(Oc1ccc(C(F)(F)F)cc1)c1ccccc1 (stereo not shown) [fluoxetine]
- reduction of symptoms versus placebo: superior to placebo in reducing symptoms
